Experimental data taken from patent publication EP0316212B1 (priority 1987, dated 1989).

Key:
[1] = tested on: HIV1; assay: HIV1 infection of human lymphocytes preincubated with antibodies or NP derivatives, reverse transcriptase in supernatants; type: cell-based; conditions: for activité reverse transcriptase (surnageants de culture): dérivés NP, concentration not given
Description: (§1) La technique de culture et de titrage de la reverse-transcriptase du HIV est rappelée ci-après : Des lymphocytes humains, préalablement activés par la PHA (phytohémagglutinine) sont incubés dans un milieu nutritif (RPMI 1640 + sérum de veau foetal + antibiotiques + β-mercaptoéthanol 10⁻⁵M + 2»g/ml polybrene + sérum anti-interféron 1/2000 + IL2 10%). Après centrifugation, le culot cellulaire est mis en présence du HIV1 (10.000 cpm/10⁶ cellules) pendant 1 heure à 37°. Après lavage et centrifugation, les cellules sont resuspendues dans du milieu nutritif. Les surnageants de culture cellulaire sont suivis pendant plusieurs jours pour leur activité reverse transcriptase. Ils sont centrifugés 7 minutes à 95000 tours et le culot est lysé par du Triton® 0,1% (produit Touzart et Matignon). Un mélange réactionnel est ajouté (Tris, DTT (dithiothreitol), MgCl₂, KCl, PolyA, Oligo dT, ³HTTP, H₂O) et après 1 heure d'incubation à 37°C, la réaction est arrêtée avec du pyrophosphate de sodium et de l'acide nucléique de levure est ajouté pour aider la précipitation. De l'acide trichloracétique (TCA) est ajouté et la solution est laissée 15 minutes à 4°C. Après filtration sous vide avec des filtres millipores 0.45 »m et plusieurs lavages avec du TCA (0.5%), on procède au rinçage à l'éthanol, au sèchage en étuve 37° et enfin au comptage.
Les lymphocytes humains, préalablement activés par la PHA, sont incubés en présence des AcN, des anticorps anti-NP et des dérivés NP (DNP-glycine, DNP-lysine) pendant une nuit à 37°C. Le lendemain, le culot cellulaire est mis en présence du HIV1 pendant 1 heure à 37°C au bain-marie et les cellules sont resuspendues dans du milieu nutritif en présence des produits à tester. Les surnageants de culture sont testés pour l'activité reverse transcriptase pendant 3 semaines.

[2] = molecular target: reverse transcriptase du HIV1 (Human immunodeficiency virus type 1 group M subtype B, UniProt P04585); assay: Reverse transcriptase activity of HIV1 incubated with NP derivatives, tested immediately; type: biochemical; conditions: témoin virus 11924
Description: as §1
Le HIV1 est incubé 1 heure à 37° en présence d'AcN (D23, 621, N5-12), d'anticorps anti-NP (TNP11) ou en présence des dérivés NP (DNP-glycine et DNP-lysine). L'activité reverse transcriptase du HIV1 est testée immédiatement (cas des dérivés DNP-glycine et DNP-lysine). Alternativement, des lymphocytes humains sont infectés par le HIV1 préincubé avec les produits à tester, et la culture cellulaire est observée pendant 3 semaines par titrage de la reverse transcriptase. Durant cette période les cultures des lymphocytes humains ne contiennent pas d'anticorps ni d'antigène.

N[C@@H](CCCCNc1ccc([N+](=O)[O-])cc1[N+](=O)[O-])C(=O)O [DNP-lysine, DNP-Lysine]
activité reverse transcriptase (surnageants de culture) ([1]; 3 jours après l'infection, témoin virus 562): 936 | activité reverse transcriptase (surnageants de culture) ([1]; 6 jours après l'infection, témoin virus 1274): 958 | activité reverse transcriptase (surnageants de culture) ([1]; 10 jours après l'infection, témoin virus 94474): 1102 | activité reverse transcriptase (surnageants de culture) ([1]; 13 jours après l'infection, témoin virus 63944): 1466 | activité reverse transcriptase (surnageants de culture) ([1]; 18 jours après l'infection, témoin virus 73368): 958 | activité reverse transcriptase (surnageants de culture) ([1]; 20 jours après l'infection, témoin virus 26840): 1268 | activité reverse transcriptase / infectivité virale par rapport au témoin virus (result in words) ([1]; lymphocytes incubés avec les produits): peuvent conduire à une inhibition totale de l'infectivité virale | Activité reverse transcriptase ([2]; 10^-3M): 4652 | Activité reverse transcriptase ([2]; 10^-6M): 3932 | Activité reverse transcriptase ([2]; 10^-7M): 7240 | Activité reverse transcriptase ([2]; 10^-9M): 9262
